This note sets out measurements from publication PMC7878295 (Gastroenterology, 2020).

Where two headings read alike, the source gives them in different places.

The viability is the share of living cells, or the viability signal relative to a control. Lower therefore signals more harm to the cells.

For one series, the system named is CYP1A2. As to the kind of experiment: CYP1A2 induction in HLO.
The test system of series [1] is human liver organoid (HLO). The conditions noted are these: 72 h.
In series [2] the test system is human liver organoid (HLO).
The next series concerns lipotoxic HLO. As to the kind of experiment: Viability in lipotoxic. The series is classed as cell-based.
For series [3], the system named is CYP2C9*2 carrier and non-carrier HLO. The series is classed as cell-based, human.
Series [4] deals with human liver organoid (HLO). As to the kind of experiment: Mitochondrial membrane potential. The conditions noted are these: treatment for 24h, multiple doses.
Series [5] in a line: Organoid viability after treatment with training compounds. The conditions noted are these: human, human liver organoids (HLO).
The next series relates to BSEP. As to the kind of experiment: CLF bile acid transport in HLO. The series is classed as cell-based, human. The conditions noted are these: normal HLO, viable dosing (100 μM, 200 μM).

In the case of `COc1ccc2[nH]c([S+]([O-])Cc3ncc(C)c(OC)c3C)nc2c1` (stereo not drawn) [Omeprazol, Omeprazole], in the series with CYP1A2, the “CYP1A2 induction response” value is reported as “major CYP induction responses in HLO”.

In the case of `COc1ccc2c(c1)c(CC(=O)O)c(C)n2C(=O)c1ccc(Cl)cc1` [Indomethacin], in series [1], the “concentration at which induced toxicity was detected in cytotoxicity assay” value is 10 µM.

In the case of `Cc1c(C)c2c(c(C)c1O)CCC(C)(COc1ccc(CC3SC(=O)NC3=O)cc1)O2` (stereo not drawn) [Troglitazone], the “cell viability at 72 hours relative to TOL, DICLO and BOS” value in series [2] is given as “significantly lowered cell viability”.

With `CCc1ccc(CCOc2ccc(CC3SC(=O)NC3=O)cc2)nc1` (stereo not drawn) [Pioglitazone], the “effect on viability” value with lipotoxic HLO (200 μM, 24h, HLO with/without lipotoxic condition) was “did not affect viability”.

Turning to `COc1ccccc1Oc1c(NS(=O)(=O)c2ccc(C(C)(C)C)cc2)nc(-c2ncccn2)nc1OCCO` [Bosentan], the “Positive rate of impaired CLF excretion” value is reported as 17.1 % of positive in series [3] (CC genotype (CYP2C9 enzyme activity normal) HLO) and 70.8 % of positive in series [3] (CT genotype (CYP2C9*2, activity intermediate) HLO).

Regarding `CC(c1cc2ccccc2s1)N(O)C(N)=O` (stereo not drawn) [Zileuton], in series [1], the “concentration at which induced toxicity was detected in cytotoxicity assay” value was found to be 100 µM.

On to `CC(=O)N[C@@H](CS)C(=O)O` [NAC, N-acetylcysteine], for which the “rescue of cell viability” value in the series with lipotoxic HLO (lipotoxic HLO treated with Troglitazone) is listed as “cell viability was significantly improved”.

Consider `CCN(CC)C(=O)/C(C#N)=C/c1cc(O)c(O)c([N+](=O)[O-])c1` [Entacapone], for which the “increase in MMP” value in series [4] is listed as “increases in MMP were not clearly observed”. In series [5], this molecule gave a viability at 24 h, 130 µM of 85% and a viability at 72 h, 130 µM of 64%.

Regarding `Cc1cc2c(cc1CC(=O)c1sccc1S(=O)(=O)Nc1onc(C)c1Cl)OCO2` [sitaxentan], in the series with BSEP, the “CLF transport” value was “inhibited CLF transport”.
